{"source": "patent US8748497B2", "about": "“Optimized fluorocarbon emulsions for blood substitutes and other therapeutic uses” (Alliance Pharmaceutical Corp., priority 2006, dated 2014)", "test": "intravascular persistence of PFOB and PFDB after 60/30% w/v PFOB/PFDB emulsion", "format": "in vivo", "conditions": "rats", "from_the_text": "FIG. 4 represents typical data for the removal of both PFOB and PFDB. […] In general, the rate constant for PFDB removal is 20-30% less than that of PFOB.\nThe emulsion composition with the data shown in FIG. 4 contains a 60/30% (w/v) ratio of PFOB/PFDB stabilized by 6% w/v EYP. In this case, the rate constant for PFDB removal is 20% higher than that of PFOB. It might be assumed that in the first few hours after administration that the removal from blood is controlled by k12 (see FIG. 1). The fluorochemical composition of circulating emulsion droplets should, therefore, remain intact. How is it then that the two disperse phase components could have different rate constants? To answer this question, the composition of the intravenously administered droplets can be examined through the use of sedimentation field-flow fractionation (SdFFF) coupled with gas chromatography, thereby confirming the nature of the droplets."}
{"smiles": "FC(F)(F)C(F)(F)C(F)(F)C(F)(F)C(F)(F)C(F)(F)C(F)(F)C(F)(F)C(F)(F)C(F)(F)Br", "note": "[PFDB, perfluorodecyl bromide]", "values": [{"measurement": "rate constant for removal, less than that of PFOB", "setting": "in general", "value": "20-30%"}, {"measurement": "rate constant for removal, higher than that of PFOB", "setting": "in this case (FIG. 4), 60/30% w/v PFOB/PFDB, 6% w/v EYP", "value": 20, "unit": "%"}]}
